In ChEMBL document CHEMBL4673331 (J Med Chem, 2020):
In brackets after ≈: the same amount, converted by molar mass.

Experiments:
[1] = Solubility of the compound at pH 6.8; format: physicochemical; details: buffer
[2] = target: T1, Mucosa-associated lymphoid tissue lymphoma translocation protein 1 (Homo sapiens, UniProt Q9UDY8); test: Allosteric inhibition of human wild-type […] MALT1 (329 to 824 residues) protease activity using Ac-Leu-Arg-Ser-Arg Rh110-dPro as substrate preincubated for 60 mins followed by substrate addition and measured after 60 mins by fluorescence assay
T1 sequence (Q9UDY8 whole entry): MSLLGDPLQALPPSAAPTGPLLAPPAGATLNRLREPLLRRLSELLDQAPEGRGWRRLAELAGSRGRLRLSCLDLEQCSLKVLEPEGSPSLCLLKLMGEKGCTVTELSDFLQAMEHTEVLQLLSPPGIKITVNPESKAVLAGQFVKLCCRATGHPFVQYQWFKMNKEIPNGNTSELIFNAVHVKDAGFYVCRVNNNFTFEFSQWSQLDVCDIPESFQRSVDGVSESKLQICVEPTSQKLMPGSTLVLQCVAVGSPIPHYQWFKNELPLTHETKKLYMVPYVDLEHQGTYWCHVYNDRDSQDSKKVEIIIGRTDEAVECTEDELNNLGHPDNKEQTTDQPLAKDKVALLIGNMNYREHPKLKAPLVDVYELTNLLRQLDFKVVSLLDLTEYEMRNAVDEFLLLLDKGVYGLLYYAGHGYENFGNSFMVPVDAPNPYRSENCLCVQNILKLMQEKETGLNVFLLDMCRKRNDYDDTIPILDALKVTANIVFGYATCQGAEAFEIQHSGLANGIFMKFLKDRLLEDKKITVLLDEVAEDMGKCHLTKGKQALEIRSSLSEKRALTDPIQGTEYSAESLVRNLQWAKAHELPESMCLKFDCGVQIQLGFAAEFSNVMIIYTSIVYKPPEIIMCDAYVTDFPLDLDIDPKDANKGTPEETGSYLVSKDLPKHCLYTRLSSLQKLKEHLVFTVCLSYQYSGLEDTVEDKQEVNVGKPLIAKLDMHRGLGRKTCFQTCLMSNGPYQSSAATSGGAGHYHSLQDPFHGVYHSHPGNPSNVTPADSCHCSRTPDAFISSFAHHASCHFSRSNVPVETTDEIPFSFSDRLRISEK

[3] = target: T1, Mucosa-associated lymphoid tissue lymphoma translocation protein 1; test: Allosteric inhibition of MALT1 in human OCI-LY3 cells assessed as reduction in BCL10 cleavage measured after 24 hrs by ELISA; format: cell-based, OCILY3
[4] = Solubility of compound at pH 6.8; format: physicochemical; details: buffer
[5] = Solubility of compound at pH 6.8 assessed as extrapolated log of solubility; format: physicochemical; details: buffer
[6] = Oral bioavailability in Sprague-Dawley rat at 3 mg/kg administered as MCT suspension; format: ADME, organism-based; details: in vivo
[7] = Dose normalized AUC in Sprague-Dawley rat at 3 mg/kg, po administered as MCT suspension; format: ADME, organism-based; details: in vivo
[8] = Terminal half-life in Sprague-Dawley rat at 1 mg/kg, iv administered as bolus dose; format: ADME, organism-based; details: in vivo, read-out: beta t1/2 (converted)
[9] = Tmax in Sprague-Dawley rat at 3 mg/kg, po administered as MCT suspension; format: ADME, organism-based; details: in vivo
[10] = Dose normalized AUC in Sprague-Dawley rat at 1.25 mg/kg, po administered as solution; format: ADME, organism-based; details: in vivo
[11] = Permeability of compound by PAMPA assay; format: ADME
[12] = Dose normalized AUC in Sprague-Dawley rat at 1 mg/kg, iv administered as bolus dose; format: ADME, organism-based; details: in vivo
[13] = Volume of distribution at steady state in Sprague-Dawley rat at 1 mg/kg, iv administered as bolus dose; format: ADME, organism-based; details: in vivo, read-out: Vdss
[14] = Intrinsic clearance in rat liver microsomes; format: ADME, Microsome; details: read-out: CLH
[15] = Clearance in male Sprague-Dawley rat at 1 mg/kg, iv administered as bolus dose; format: ADME, organism-based; details: in vivo
[16] = Thermodynamic solubility of the compound at pH 6.8; format: physicochemical; details: buffer, read-out: Therm_solubility
[17] = Dose normalized Cmax in Sprague-Dawley rat at 3 mg/kg, po administered as MCT suspension; format: ADME, organism-based; details: in vivo
[18] = Lipophilicity, log D of the compound at pH 7.4; format: physicochemical; details: buffer
[19] = Tmax in Sprague-Dawley rat at 1.25 mg/kg, po administered as solution; format: ADME, organism-based; details: in vivo
[20] = Protein binding in rat plasma; format: ADME, cell-free; details: read-out: PPB (converted)
[21] = Dose normalized Cmax in Sprague-Dawley rat at 1.25 mg/kg, po administered as solution; format: ADME, organism-based; details: in vivo
[22] = Oral bioavailability in Sprague-Dawley rat at 1.25 mg/kg administered as solution; format: ADME, organism-based; details: in vivo
[23] = target: Voltage-gated inwardly rectifying potassium channel KCNH2 (Homo sapiens, UniProt Q12809); test: Inhibition of human ERG
Voltage-gated inwardly rectifying potassium channel KCNH2, sequence (Q12809 whole entry): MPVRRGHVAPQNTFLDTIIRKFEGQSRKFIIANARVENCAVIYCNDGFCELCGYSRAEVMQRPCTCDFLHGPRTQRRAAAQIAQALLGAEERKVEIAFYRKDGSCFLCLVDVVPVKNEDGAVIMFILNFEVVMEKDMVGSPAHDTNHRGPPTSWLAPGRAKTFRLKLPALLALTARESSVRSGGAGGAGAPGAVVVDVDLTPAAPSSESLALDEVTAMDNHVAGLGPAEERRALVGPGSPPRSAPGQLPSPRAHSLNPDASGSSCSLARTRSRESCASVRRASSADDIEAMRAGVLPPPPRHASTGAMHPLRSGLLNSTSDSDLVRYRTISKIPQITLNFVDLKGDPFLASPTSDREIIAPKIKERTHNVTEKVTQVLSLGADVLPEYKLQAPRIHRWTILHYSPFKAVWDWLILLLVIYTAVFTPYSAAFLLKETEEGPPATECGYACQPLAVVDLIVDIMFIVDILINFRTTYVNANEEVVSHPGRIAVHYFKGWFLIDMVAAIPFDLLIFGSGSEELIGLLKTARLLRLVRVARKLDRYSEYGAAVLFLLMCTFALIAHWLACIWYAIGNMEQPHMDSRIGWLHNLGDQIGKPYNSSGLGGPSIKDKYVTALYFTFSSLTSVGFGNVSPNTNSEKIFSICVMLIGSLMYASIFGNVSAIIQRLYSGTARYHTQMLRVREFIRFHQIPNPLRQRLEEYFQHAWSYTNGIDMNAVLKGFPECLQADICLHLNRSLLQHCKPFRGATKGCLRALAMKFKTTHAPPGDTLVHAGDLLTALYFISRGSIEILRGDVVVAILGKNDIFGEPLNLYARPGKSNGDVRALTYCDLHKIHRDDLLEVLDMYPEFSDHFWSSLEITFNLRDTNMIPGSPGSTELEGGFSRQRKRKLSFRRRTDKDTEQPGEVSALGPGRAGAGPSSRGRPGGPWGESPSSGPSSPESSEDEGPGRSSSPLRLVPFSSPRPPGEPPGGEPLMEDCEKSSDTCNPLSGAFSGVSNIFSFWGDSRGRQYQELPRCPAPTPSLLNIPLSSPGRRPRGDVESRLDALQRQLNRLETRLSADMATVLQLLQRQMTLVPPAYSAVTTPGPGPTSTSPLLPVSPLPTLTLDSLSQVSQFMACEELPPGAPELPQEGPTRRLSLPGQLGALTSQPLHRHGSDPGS

Structure (SMILES)	solubility [1] [µM]	IC50 [2] [nM]	IC50 [3] [nM]	other results
COc1ccc(NC(=O)NC2CSc3ccc(F)cc3C2)cc1Cl (racemic)	–	145	4270	–
COc1ccc(N(C)C(=O)NC2COc3ccc(Br)cc3C2)cc1Cl (stereo not given)	–	> 100000	–	–
C[C@H]1COCCN1c1c(NC(=O)Nc2cnc(OC3CCN(C)CC3)c(Cl)c2)cnc2ccc(F)cc12	60 (≈ 31.7 µg/mL)	70	–	–
COc1ccc(NC(=O)NC2COc3ccccc3C2)cc1Cl (racemic)	–	245	2300	–
COc1ccc(NC(=O)N(C)C2COc3ccc(Br)cc3C2)cc1Cl (stereo not given)	–	> 100000	–	–
COc1ccc(NC(=O)Nc2cnc3ccc(Br)cc3c2)cc1Cl	< 4	242	4820	–
COc1ccc(NC(=O)N[C@@H]2COc3ccccc3C2)cc1Cl	–	> 100000	–	–
COc1ccc(NC(=O)NC2COc3ccc(F)cc3C2)cc1Cl (racemic)	–	57	1250	–
COc1ccc(NC(=O)NC2CCc3ccccc3C2)cc1Cl (racemic)	–	> 100000	–	–
COc1ccc(NC(=O)NC2COc3ccc(C#N)cc3C2)cc1Cl (racemic)	–	150	1920	–
COc1ccc(NC(=O)CC2COc3ccccc3C2)cc1Cl (stereo not given)	–	1000	–	–
COc1ccc(NC(=O)N[C@H]2COc3ccccc3C2)cc1Cl	–	135	–	–
COc1ccc(NC(=O)NC2COc3ccc(Br)cc3C2)cc1Cl (racemic)	–	50	–	–
COc1ccc(CC(=O)NC2COc3ccccc3C2)cc1Cl (stereo not given)	–	> 100000	–	–
COc1ncc(NC(=O)Nc2cnc3ccc(F)cc3c2N(C)C2CCCN(C)C2)cc1Cl (stereo not given)	61 (≈ 28.9 µg/mL)	70	–	IC50 [23]: 9000 nM

The next compounds have a lower IC50 [2] than those just listed; values first:

solubility [1] [µM]	IC50 [2] [nM]	IC50 [3] [nM]	Structure (SMILES)	other results
< 4	29	510	COc1ccc(NC(=O)Nc2cnc3ccc(Br)cc3c2Cl)cc1Cl	–
–	26	1960	O=C(Nc1ccc(-n2cncn2)c(Cl)c1)N[C@H]1COc2ccc(Br)cc2C1	–
–	31	3540	COc1ncc(NC(=O)NC2COc3ccc(Br)cc3C2)cc1Cl (stereo not given)	–
< 4	2	80	COc1ncc(NC(=O)Nc2cnc3cc(Cl)nn3c2N2CCOCC2(C)C)cc1Cl	–
< 4	6	120	COc1ccc(NC(=O)Nc2cnc3ccc(C#N)cc3c2N2CCOC[C@@H]2C)cc1Cl	–
81 (≈ 37.8 µg/mL)	6	330	COc1ncc(NC(=O)Nc2cnc3cc(Cl)nn3c2N2[C@@H](C)COC[C@@H]2C)cc1Cl	–
155 (≈ 77 µg/mL)	17	740	COc1ncc(NC(=O)Nc2cnc3cc(Br)nn3c2N2CCOC[C@@H]2C)cc1Cl	–
27 (≈ 12.6 µg/mL)	8	670	COc1ccc(NC(=O)Nc2cnc3ccc(C#N)cc3c2N(C)C2CCOCC2)cc1Cl	log1/S [4]: 7.1; log1/S0 [4]: 7.1; log1/S [5]: 7.1
< 4	5	37	COc1ncc(NC(=O)Nc2cnc3ccc(C#N)cc3c2N2CCOC[C@@H]2C)cc1Cl	bioavailability [6]: 8%; AUC/dose [7]: 103 nM·h; half-life [8]: 2.1 h; Tmax [9]: 8 h; AUC/dose [10]: 520 nM·h; log(permeability) [11]: -4.9; AUC/dose [12]: 1240 nM·h; Vd [13]: 4.8 L/kg; microsomal CLint [14]: 3.4 µL/min/mg; clearance [15]: 31 mL/min/kg; solubility thermodynamic [16]: 0.2 µg/mL (≈ 0.442 µM); Cmax/dose [17]: 11 nM; logD [18]: 3.8; Tmax [19]: 3 h; fraction unbound [20]: 0.025; Cmax/dose [21]: 71 nM; bioavailability [22]: 42%
8 (≈ 3.76 µg/mL)	6	280	CC1(C)COCCN1c1c(NC(=O)Nc2ccnc(C(F)(F)F)c2)cnc2cc(Cl)nn12	–
< 4	2	190	COc1ncc(NC(=O)Nc2cnc3ccc(C#N)cc3c2N(C)C2CCOCC2)cc1Cl	–
